# How the values were obtained:
# HCVcc = format: cell-based, HCV
# HIV-1 (R5 JR-CSF) = experiment: Antiviral effect of PD before, during and after HIV-1 exposure (TZM-bl); format: cell-based
# HIV-20DC310342 = experiment: HIV-2 infectivity assay in TZM-bl cells; format: cell-based; settings: Human immunodeficiency virus 2, TZM-bl
# HIV-1 93BR020 = experiment: HIV infectivity assay in TZM-bl cells; format: cell-based; settings: 93BR020 (clade F, X4); for IC50: Human immunodeficiency virus 1, TZM-bl
# VSV-Gpp, HIVpp = format: cell-based, HIV pseudotyped lentiviruses
# HIV-1 clinical isolates = experiment: Anti-HIV efficacy in fresh human PBMC (all isolates, summary); format: cell-based; settings: Human immunodeficiency virus 1, PBMC; eight HIV-1 clinical isolates in PBMCs
# HIV-1 93TH053 = experiment: HIV infectivity assay in TZM-bl cells; format: cell-based; settings: 93TH053 (clade E, X4); for IC50: Human immunodeficiency virus 1, TZM-bl
# Jc1 HCVcc = experiment: microbe, parasite or virus in culture; format: cell-based, HCV; settings: Hepatitis C virus, Huh7.5, read-out: IC50, inactivation of cell-free HCVcc
# HIV-1 98IN022 = experiment: Anti-HIV efficacy in fresh human PBMC (reverse transcriptase activity); format: cell-based; settings: Human immunodeficiency virus 1, PBMC, 168 h; 98IN022 (clade C, R5); PBMCs, MOI = 0.1, 7 days
# HIV-1 92TH006 = experiment: HIV infectivity assay in TZM-bl cells; format: cell-based; settings: 92TH006 (clade E, R5); for IC50: Human immunodeficiency virus 1, TZM-bl
# SIVmac251 32H = experiment: SIV infectivity assay in TZM-bl cells; format: cell-based; settings: Simian immunodeficiency virus
# HIV-1 93BR029 = experiment: microbe, parasite or virus in culture; format: cell-based; settings: 93BR029 (clade F, R5); for IC50: Human immunodeficiency virus 1, TZM-bl
# HIV-1 (X4 NL4.3) = experiment: HIV-1 sedimentation assay; settings: 10 μM PD, 30 min, 37° C.
# [1] = system: freshly activated human PBMC; experiment: Compound cytotoxicity in uninfected PBMC (MTS assay); settings: freshly activated PBMCs, uninfected plates, MTS assay, 7 days
# [2] = as above; settings: human
# HIV-1 93IN101 = experiment: HIV infectivity assay in TZM-bl cells; format: cell-based; settings: 93IN101 (clade C, R5); for IC50: Human immunodeficiency virus 1, TZM-bl
# Lactobacilli = experiment: Lactobacillus toxicity testing (all strains, summary); format: cell-based; settings: 300 μM PD, 37° C., 30 min
# Method: (§1) Reference strains of L. crispatus and L. jensenii were obtained from the ATCC (Manassas, Va.) and cultured on Columbia blood agar plates at 35° C. in air enriched with 6% CO2. Bacterial suspensions were prepared in saline or ACES buffer to a density of 2 McFarland units (˜2×10^8 bacteria/mL), and exposed to PD (300 μM) or DMSO (10%) for 30 minutes at 37° C. After incubation, the cells were serially diluted in ACES buffer, pH 7.0 (Sigma-Aldrich, St. Louis, Mo.) and plated on blood agar plates to quantify colony forming unit per mL (CFU/mL)
# (§2) Different bacterial strains were incubated with 300 μM PD or solvent DMSO-containing control media at 37° C. for 30 min and plated on blood agar plates to estimate their corresponding colony forming units per ml (CFU/ml). Less than 1 log difference between control and test CFU is considered non-toxic 17.
# [3] = as above; format: cell-based; settings: Lactobacillus (L. crispatus and L. jensenii), suspensions of vaginal commensal Lactobacillus strains; vaginal commensal bacteria Lactobacilli
# Method: as §1, §2
# HIV-1 RU132 = experiment: HIV infectivity assay in TZM-bl cells; format: cell-based; settings: RU132 (clade G, R5); for IC50: Human immunodeficiency virus 1, TZM-bl
# HIV-1 92UG029 = experiment: HIV infectivity assay in TZM-bl cells; format: cell-based; settings: 92UG029 (clade A, X4); for IC50: Human immunodeficiency virus 1, TZM-bl
# HIV-1 92UG005 = experiment: HIV infectivity assay in TZM-bl cells; format: cell-based; settings: 92UG005 (clade D, R5); for IC50: Human immunodeficiency virus 1, TZM-bl
compound,measurement,setting,value
"N=C1Sc2ccccc2C2=NCCCN12 [PD, PD 404,182]",inhibition of HCVcc infectivity,HCVcc,> 10 fold
same,"antiviral effect, PD added after virus inoculation","HIV-1 (R5 JR-CSF); 10 μM PD, 1, 2, 4 and 8 h post treatment",loses its antiviral effect
same,"antiviral effect, extended preincubation of PD with cells","HIV-1 (R5 JR-CSF); 10 μM PD, >16 h prior to virus inoculation",significantly reduces the compound's antiviral efficacy
same,"antiviral effect, PD added together with the virus","HIV-1 (R5 JR-CSF); 10 μM PD, time zero",significantly inhibits HIV-1 infection
same,"antiviral effect, PD added before the virus","HIV-1 (R5 JR-CSF); 10 μM PD, up to 8 h before the addition of the virus",retains its full potency
same,time antiviral activity is retained in cell culture prior to the addition of HIV-1,HIV-1 (R5 JR-CSF); cell culture at 37° C.,at least 8 hours
same,IC50,HIV-20DC310342,1800 nM
same,IC90,HIV-1 93BR020; PD in DMEM + 10% FBS,6900 ± 400 nM
same,IC90,HIV-1 93BR020; PD in cervical fluids,7500 ± 400 nM
same,IC90,HIV-1 93BR020; PD in seminal plasma,7190 ± 620 nM
same,IC50,HIV-1 93BR020; PD in DMEM + 10% FBS,1400 nM
same,IC50,HIV-1 93BR020; PD in cervical fluids,1900 nM
same,IC50,HIV-1 93BR020; PD in seminal plasma,1610 nM
same,increase in IC50,"VSV-Gpp, HIVpp",50-80 fold
same,IC50,HIV-1 clinical isolates,550 nM
same,IC90,HIV-1 93TH053; PD in DMEM + 10% FBS,5300 ± 300 nM
same,IC90,HIV-1 93TH053; PD in cervical fluids,6400 ± 400 nM
same,IC90,HIV-1 93TH053; PD in seminal plasma,6650 ± 480 nM
same,IC50,HIV-1 93TH053; PD in DMEM + 10% FBS,1400 nM
same,IC50,HIV-1 93TH053; PD in cervical fluids,1800 nM
same,IC50,HIV-1 93TH053; PD in seminal plasma,1670 nM
same,IC50,Jc1 HCVcc,11000 nM
same,IC50,HIV-1 98IN022,400 nM
same,IC90,HIV-1 98IN022,1480 nM
same,IC50 (DMEM; IC90 per footnote),HIV-1 92TH006; PD in DMEM + 10% FBS,6600 ± 400 nM
same,IC50 (Cervical Fluid; IC90 per footnote),HIV-1 92TH006; PD in cervical fluids,7600 ± 600 nM
same,IC50 (Seminal Plasma; IC90 per footnote),HIV-1 92TH006; PD in seminal plasma,6730 ± 510 nM
same,IC50,HIV-1 92TH006; PD in DMEM + 10% FBS,1800 nM
same,IC50,HIV-1 92TH006; PD in cervical fluids,2300 nM
same,IC50,HIV-1 92TH006; PD in seminal plasma,1960 nM
same,IC50,SIVmac251 32H,1100 nM
same,IC90,HIV-1 93BR029; PD in DMEM + 10% FBS,3500 ± 200 nM
same,IC90,HIV-1 93BR029; PD in cervical fluids,4600 ± 300 nM
same,IC90,HIV-1 93BR029; PD in seminal plasma,3720 ± 260 nM
same,IC50,HIV-1 93BR029; PD in DMEM + 10% FBS,700 nM
same,IC50,HIV-1 93BR029; PD in cervical fluids,1200 nM
same,IC50,HIV-1 93BR029; PD in seminal plasma,850 nM
same,sedimentation of HIV capsid and RT in sucrose gradient,HIV-1 (X4 NL4.3),viral capsid and RT relocate to the top of the gradient
same,CC50,[1],> 200000 nM
same,"cytotoxicity at 7 days, 200 μM",[2],48%
same,CC50 at 7 days,"[2]; CC50, freshly activated PBMCs, uninfected plates, MTS assay, 7 days",~200000 nM
same,IC50 (DMEM; IC90 per footnote),HIV-1 93IN101; PD in DMEM + 10% FBS,5100 ± 300 nM
same,IC50 (Cervical Fluid; IC90 per footnote),HIV-1 93IN101; PD in cervical fluids,5500 ± 200 nM
same,IC50 (Seminal Plasma; IC90 per footnote),HIV-1 93IN101; PD in seminal plasma,5360 ± 370 nM
same,IC50,HIV-1 93IN101; PD in DMEM + 10% FBS,1500 nM
same,IC50,HIV-1 93IN101; PD in cervical fluids,1800 nM
same,IC50,HIV-1 93IN101; PD in seminal plasma,1760 nM
same,effect on Lactobacillus strains,Lactobacilli,no adverse effect on all strains of bacteria tested
same,CC50 at 30 min,[3],> 300000 nM
same,IC50,HIV-1 RU132; PD in DMEM + 10% FBS,700 nM
same,IC50,HIV-1 RU132; PD in cervical fluids,900 nM
same,IC50,HIV-1 RU132; PD in seminal plasma,740 nM
same,IC90,HIV-1 RU132; PD in DMEM + 10% FBS,3100 ± 200 nM
same,IC90,HIV-1 RU132; PD in cervical fluids,3900 ± 500 nM
same,IC90,HIV-1 RU132; PD in seminal plasma,3280 ± 220 nM
same,IC90,HIV-1 92UG029; PD in DMEM + 10% FBS,4400 ± 200 nM
same,IC90,HIV-1 92UG029; PD in cervical fluids,5300 ± 300 nM
same,IC90,HIV-1 92UG029; PD in seminal plasma,4710 ± 260 nM
same,IC50,HIV-1 92UG029; PD in DMEM + 10% FBS,1180 nM
same,IC50,HIV-1 92UG029; PD in cervical fluids,1470 nM
same,IC50,HIV-1 92UG029; PD in seminal plasma,1330 nM
same,IC50 (DMEM; IC90 per footnote),HIV-1 92UG005; PD in DMEM + 10% FBS,5300 ± 400 nM
same,IC50 (Cervical Fluid; IC90 per footnote),HIV-1 92UG005; PD in cervical fluids,5700 ± 300 nM
same,IC50 (Seminal Plasma; IC90 per footnote),HIV-1 92UG005; PD in seminal plasma,5570 ± 440 nM
same,IC50,HIV-1 92UG005; PD in DMEM + 10% FBS,1260 nM
same,IC50,HIV-1 92UG005; PD in cervical fluids,1390 nM
same,IC50,HIV-1 92UG005; PD in seminal plasma,1320 nM

# Source: patent US20140227335A1 (priority 2012, published 2014)
